Measurements as given in ChEMBL document CHEMBL1649134, “Occurrence of efflux mechanism and cephalosporinase variant in a population of Enterobacter aerogenes and Klebsiella pneumoniae isolates producing extended-spectrum beta-lactamases” (2009).
In brackets after ≈: the same amount, converted by molar mass.

Legend:
Format in all cases: functional
Klebsiella aerogenes [1] = experiment: Antimicrobial activity against multidrug resistant Enterobacter aerogenes isolate 13 by broth dilution method in presence of 26.3 mg/L efflux pump inhibitor phenylalanine-arginine-beta-naphthylamide
Klebsiella pneumoniae [2] = experiment: Antimicrobial activity against multidrug resistant Klebsiella pneumoniae isolate 15 by broth dilution method
Klebsiella aerogenes [3] = experiment: Antimicrobial activity against multidrug resistant Enterobacter aerogenes isolate 14 by broth dilution method in presence of 26.3 mg/L efflux pump inhibitor phenylalanine-arginine-beta-naphthylamide
Klebsiella pneumoniae [4] = experiment: Antimicrobial activity against multidrug resistant Klebsiella pneumoniae isolate 2 by broth dilution method in presence of 26.3 mg/L efflux pump inhibitor phenylalanine-arginine-beta-naphthylamide
Klebsiella aerogenes [5] = experiment: Antimicrobial activity against multidrug resistant Enterobacter aerogenes isolate 8 by broth dilution method
Klebsiella aerogenes [6] = experiment: Antimicrobial activity against multidrug resistant Enterobacter aerogenes isolate 18 by broth dilution method
Klebsiella aerogenes [7] = experiment: Antimicrobial activity against multidrug resistant Enterobacter aerogenes isolate 12 by broth dilution method
Klebsiella aerogenes [8] = experiment: Antimicrobial activity against multidrug resistant Enterobacter aerogenes isolate 1 by broth dilution method in presence of 26.3 mg/L efflux pump inhibitor phenylalanine-arginine-beta-naphthylamide
Klebsiella aerogenes [9] = experiment: Antimicrobial activity against multidrug resistant Enterobacter aerogenes isolate 7 by broth dilution method
Klebsiella aerogenes [10] = experiment: Antimicrobial activity against multidrug resistant Enterobacter aerogenes isolate 7 by broth dilution method in presence of 26.3 mg/L efflux pump inhibitor phenylalanine-arginine-beta-naphthylamide
Klebsiella pneumoniae [11] = experiment: Antimicrobial activity against multidrug resistant Klebsiella pneumoniae isolate 5 by broth dilution method in presence of 26.3 mg/L efflux pump inhibitor phenylalanine-arginine-beta-naphthylamide
Klebsiella aerogenes [12] = experiment: Antimicrobial activity against multidrug resistant Enterobacter aerogenes isolate 8 by broth dilution method in presence of 26.3 mg/L efflux pump inhibitor phenylalanine-arginine-beta-naphthylamide
Klebsiella aerogenes [13] = experiment: Antimicrobial activity against multidrug resistant Enterobacter aerogenes isolate 11 by broth dilution method
Klebsiella aerogenes [14] = experiment: Antimicrobial activity against multidrug resistant Enterobacter aerogenes isolate 25 by broth dilution method
Klebsiella pneumoniae [15] = experiment: Antimicrobial activity against multidrug resistant Klebsiella pneumoniae isolate 12 by broth dilution method
Klebsiella aerogenes [16] = experiment: Antimicrobial activity against multidrug resistant Enterobacter aerogenes isolate 19 by broth dilution method in presence of 26.3 mg/L efflux pump inhibitor phenylalanine-arginine-beta-naphthylamide
Klebsiella aerogenes [17] = experiment: Antimicrobial activity against multidrug resistant Enterobacter aerogenes isolate 16 by broth dilution method
Klebsiella aerogenes [18] = experiment: Antimicrobial activity against multidrug resistant Enterobacter aerogenes isolate 4 by broth dilution method in presence of 26.3 mg/L efflux pump inhibitor phenylalanine-arginine-beta-naphthylamide
Klebsiella pneumoniae [19] = experiment: Antimicrobial activity against multidrug resistant Klebsiella pneumoniae isolate 7 by broth dilution method in presence of 26.3 mg/L efflux pump inhibitor phenylalanine-arginine-beta-naphthylamide
Klebsiella aerogenes [20] = experiment: Antimicrobial activity against multidrug resistant Enterobacter aerogenes isolate 9 by broth dilution method in presence of 26.3 mg/L efflux pump inhibitor phenylalanine-arginine-beta-naphthylamide
Klebsiella aerogenes [21] = experiment: Antimicrobial activity against multidrug resistant Enterobacter aerogenes isolate 17 by broth dilution method
Klebsiella aerogenes [22] = experiment: Antimicrobial activity against multidrug resistant Enterobacter aerogenes isolate 6 by broth dilution method in presence of 26.3 mg/L efflux pump inhibitor phenylalanine-arginine-beta-naphthylamide
Klebsiella aerogenes [23] = experiment: Antimicrobial activity against multidrug resistant Enterobacter aerogenes isolate 22 by broth dilution method
Klebsiella pneumoniae [24] = experiment: Antimicrobial activity against multidrug resistant Klebsiella pneumoniae isolate 9 by broth dilution method
Klebsiella pneumoniae [25] = experiment: Antimicrobial activity against multidrug resistant Klebsiella pneumoniae isolate 1 by broth dilution method in presence of 26.3 mg/L efflux pump inhibitor phenylalanine-arginine-beta-naphthylamide
Klebsiella pneumoniae [26] = experiment: Antimicrobial activity against multidrug resistant Klebsiella pneumoniae isolate 8 by broth dilution method in presence of 26.3 mg/L efflux pump inhibitor phenylalanine-arginine-beta-naphthylamide
Klebsiella pneumoniae [27] = experiment: Antimicrobial activity against multidrug resistant Klebsiella pneumoniae isolate 3 by broth dilution method in presence of 26.3 mg/L efflux pump inhibitor phenylalanine-arginine-beta-naphthylamide
Klebsiella aerogenes [28] = experiment: Antimicrobial activity against multidrug resistant Enterobacter aerogenes isolate 17 by broth dilution method in presence of 26.3 mg/L efflux pump inhibitor phenylalanine-arginine-beta-naphthylamide
Klebsiella pneumoniae [29] = experiment: Antimicrobial activity against multidrug resistant Klebsiella pneumoniae ATCC 11296 by broth dilution method in presence of 26.3 mg/L efflux pump inhibitor phenylalanine-arginine-beta-naphthylamide
Klebsiella aerogenes [30] = experiment: Antimicrobial activity against multidrug resistant Enterobacter aerogenes isolate 27 by broth dilution method
Klebsiella pneumoniae [31] = experiment: Antimicrobial activity against multidrug resistant Klebsiella pneumoniae isolate 5 by broth dilution method
Klebsiella pneumoniae [32] = experiment: Antimicrobial activity against multidrug resistant Klebsiella pneumoniae isolate 13 by broth dilution method in presence of 26.3 mg/L efflux pump inhibitor phenylalanine-arginine-beta-naphthylamide
Klebsiella aerogenes [33] = experiment: Antimicrobial activity against multidrug resistant Enterobacter aerogenes isolate 11 by broth dilution method in presence of 26.3 mg/L efflux pump inhibitor phenylalanine-arginine-beta-naphthylamide
Klebsiella pneumoniae [34] = experiment: Antimicrobial activity against multidrug resistant Klebsiella pneumoniae isolate 7 by broth dilution method
Klebsiella aerogenes [35] = experiment: Antimicrobial activity against multidrug resistant Enterobacter aerogenes isolate 20 by broth dilution method
Klebsiella pneumoniae [36] = experiment: Antimicrobial activity against multidrug resistant Klebsiella pneumoniae isolate 9 by broth dilution method in presence of 26.3 mg/L efflux pump inhibitor phenylalanine-arginine-beta-naphthylamide
Klebsiella aerogenes [37] = experiment: Antimicrobial activity against multidrug resistant Enterobacter aerogenes isolate 26 by broth dilution method
Klebsiella aerogenes [38] = experiment: Antimicrobial activity against multidrug resistant Enterobacter aerogenes isolate 5 by broth dilution method
Klebsiella aerogenes [39] = experiment: Antimicrobial activity against multidrug resistant Enterobacter aerogenes isolate 26 by broth dilution method in presence of 26.3 mg/L efflux pump inhibitor phenylalanine-arginine-beta-naphthylamide
Klebsiella aerogenes [40] = experiment: Antimicrobial activity against multidrug resistant Enterobacter aerogenes isolate 23 by broth dilution method
Klebsiella aerogenes [41] = experiment: Antimicrobial activity against multidrug resistant Enterobacter aerogenes isolate 3 by broth dilution method

CN(C)[C@@H]1C(O)=C(C(N)=O)C(=O)[C@@]2(O)C(O)=C3C(=O)c4c(O)cccc4[C@@](C)(O)[C@H]3C[C@@H]12 [TETRACYCLINE]
MIC (Klebsiella aerogenes [1]): 8 µg/mL | MIC (Klebsiella pneumoniae [2]): 2 µg/mL (≈ 4.5 µM) | MIC (Klebsiella aerogenes [3]): 16 µg/mL | MIC (Klebsiella pneumoniae [4]): 2 µg/mL | MIC (Klebsiella aerogenes [5]): 64 µg/mL (≈ 144 µM) | MIC (Klebsiella aerogenes [6]): 4 µg/mL (≈ 9 µM) | MIC (Klebsiella aerogenes [7]): 128 µg/mL (≈ 288 µM) | MIC (Klebsiella aerogenes [8]): 8 µg/mL | MIC (Klebsiella aerogenes [9]): 128 µg/mL (≈ 288 µM) | MIC (Klebsiella aerogenes [10]): 16 µg/mL | MIC (Klebsiella pneumoniae [11]): 128 µg/mL | MIC (Klebsiella aerogenes [12]): 2 µg/mL | MIC (Klebsiella aerogenes [13]): 64 µg/mL (≈ 144 µM) | MIC (Klebsiella aerogenes [14]): 64 µg/mL (≈ 144 µM) | MIC (Klebsiella pneumoniae [15]): 2 µg/mL (≈ 4.5 µM) | MIC (Klebsiella aerogenes [16]): 8 µg/mL | MIC (Klebsiella aerogenes [17]): 64 µg/mL (≈ 144 µM) | MIC (Klebsiella aerogenes [18]): 8 µg/mL | MIC (Klebsiella pneumoniae [19]): 128 µg/mL | MIC (Klebsiella aerogenes [20]): 4 µg/mL | MIC (Klebsiella aerogenes [21]): 64 µg/mL (≈ 144 µM) | MIC (Klebsiella aerogenes [22]): 8 µg/mL | MIC (Klebsiella aerogenes [23]): 128 µg/mL (≈ 288 µM) | MIC (Klebsiella pneumoniae [24]): 8 µg/mL (≈ 18 µM) | MIC (Klebsiella pneumoniae [25]): 128 µg/mL | MIC (Klebsiella pneumoniae [26]): 128 µg/mL | MIC (Klebsiella pneumoniae [27]): 256 µg/mL | MIC (Klebsiella aerogenes [28]): 8 µg/mL | MIC (Klebsiella pneumoniae [29]): 1 µg/mL | MIC (Klebsiella aerogenes [30]): 128 µg/mL (≈ 288 µM) | MIC (Klebsiella pneumoniae [31]): 2 µg/mL (≈ 4.5 µM) | MIC (Klebsiella pneumoniae [32]): 128 µg/mL | MIC (Klebsiella aerogenes [33]): 8 µg/mL | MIC (Klebsiella pneumoniae [34]): 2 µg/mL (≈ 4.5 µM) | MIC (Klebsiella aerogenes [35]): 64 µg/mL (≈ 144 µM) | MIC (Klebsiella pneumoniae [36]): 128 µg/mL | MIC (Klebsiella aerogenes [37]): 32 µg/mL (≈ 72 µM) | MIC (Klebsiella aerogenes [38]): 128 µg/mL (≈ 288 µM) | MIC (Klebsiella aerogenes [39]): 2 µg/mL | MIC (Klebsiella aerogenes [40]): 64 µg/mL (≈ 144 µM) | MIC (Klebsiella aerogenes [41]): 128 µg/mL (≈ 288 µM)

C[C@@H]1CN(c2c(F)c(N)c3c(=O)c(C(=O)O)cn(C4CC4)c3c2F)C[C@H](C)N1 [SPARFLOXACIN]
MIC (Klebsiella aerogenes [1]): 8 µg/mL | MIC (Klebsiella pneumoniae [2]): 32 µg/mL (≈ 81.5 µM) | MIC (Klebsiella aerogenes [3]): 8 µg/mL | MIC (Klebsiella pneumoniae [4]): ≤ 0.06 µg/mL | MIC (Klebsiella aerogenes [5]): 64 µg/mL (≈ 163 µM) | MIC (Klebsiella aerogenes [6]): 128 µg/mL (≈ 326 µM) | MIC (Klebsiella aerogenes [7]): 128 µg/mL (≈ 326 µM) | MIC (Klebsiella aerogenes [8]): 8 µg/mL | MIC (Klebsiella aerogenes [9]): 128 µg/mL (≈ 326 µM) | MIC (Klebsiella aerogenes [10]): 4 µg/mL | MIC (Klebsiella pneumoniae [11]): ≤ 0.06 µg/mL | MIC (Klebsiella aerogenes [12]): 4 µg/mL | MIC (Klebsiella aerogenes [13]): 128 µg/mL (≈ 326 µM) | MIC (Klebsiella aerogenes [14]): 128 µg/mL (≈ 326 µM) | MIC (Klebsiella pneumoniae [15]): ≤ 0.06 µg/mL | MIC (Klebsiella aerogenes [16]): 16 µg/mL | MIC (Klebsiella aerogenes [17]): 64 µg/mL (≈ 163 µM) | MIC (Klebsiella aerogenes [18]): 8 µg/mL | MIC (Klebsiella pneumoniae [19]): ≤ 0.06 µg/mL | MIC (Klebsiella aerogenes [20]): 8 µg/mL | MIC (Klebsiella aerogenes [21]): 256 µg/mL (≈ 652 µM) | MIC (Klebsiella aerogenes [22]): ≤ 0.06 µg/mL | MIC (Klebsiella aerogenes [23]): 256 µg/mL (≈ 652 µM) | MIC (Klebsiella pneumoniae [24]): ≤ 0.06 µg/mL | MIC (Klebsiella pneumoniae [25]): 0.25 µg/mL | MIC (Klebsiella pneumoniae [26]): ≤ 0.06 µg/mL | MIC (Klebsiella pneumoniae [27]): 4 µg/mL | MIC (Klebsiella aerogenes [28]): 16 µg/mL | MIC (Klebsiella pneumoniae [29]): ≤ 0.06 µg/mL | MIC (Klebsiella aerogenes [30]): 256 µg/mL (≈ 652 µM) | MIC (Klebsiella pneumoniae [31]): 0.125 µg/mL (≈ 0.319 µM) | MIC (Klebsiella pneumoniae [32]): 0.5 µg/mL | MIC (Klebsiella aerogenes [33]): 4 µg/mL | MIC (Klebsiella pneumoniae [34]): 0.25 µg/mL (≈ 0.637 µM) | MIC (Klebsiella aerogenes [35]): 256 µg/mL (≈ 652 µM) | MIC (Klebsiella pneumoniae [36]): ≤ 0.06 µg/mL | MIC (Klebsiella aerogenes [37]): 32 µg/mL (≈ 81.5 µM) | MIC (Klebsiella aerogenes [38]): 512 µg/mL (≈ 1300 µM) | MIC (Klebsiella aerogenes [39]): 4 µg/mL | MIC (Klebsiella aerogenes [40]): 128 µg/mL (≈ 326 µM) | MIC (Klebsiella aerogenes [41]): 128 µg/mL (≈ 326 µM)
